Experiment [1] concerns murine podocytes. Put plainly: Podocyte HCS phenotypic assay, PAN-induced podocyte injury. Type of experiment: cell-based. The settings on record: for prevention of PAN induced injury, dose-response of percent damaged cells (FIG. 4A-4P): 30 ug/ml PAN, co-treatment, multi-parameter algorithm. As to the method:
Conditionally immortalized human and murine podocytes were used in a majority of the assays. Human and murine podocytes were cultured as have been described previously (Saleem et al., JASN 13, 630-638 (2002); Mundel, Reiser et al., Experimental Cell Research, 236, p 248 (1997)). For example, murine podocytes derived from the mouse line H-2Kb-tsA58 were cultured under permissive conditions at 33° C. on rat-tail collagen coated dishes in RPMI medium supplemented with 10% heat inactivated FBS, penicillin and streptomycin (100 U/ml), and 10 U/ml recombinant mouse γ-interferon. Cells were then trypsinized and re-plated for differentiation at 37° C. in medium without γ-interferon. The cells were differentiated for 0 to 7 days and then reseeded to rat-tail collagen coated multi-well plates at a density of 1500/well or 500/well for 96 and 384 well plates, respectively. Cells were then further differentiated for another 5-14 days in the multi-well plates for subsequent experimentation with various reagents prior to fixation and analyses.
In some embodiments, podocytes were cultured at 37° C. for the first 7 days of differentiation in large tissue culture flasks and subsequently reseeded and further cultured at 37° C. in the 96-well assay plates for the next 4-6 days to provide low well-to-well variability in cell number in the assay plates and healthy podocytes expressing specific and well characterized podocyte markers synaptopodin and podocin.
Differentiated podocytes were cultured in 96-well or 384-well multiwall optical plates (PerkinElmer, Boston, Mass.). In some embodiments, differentiated podocytes were treated with various amounts of puromycin aminonucleoside (PAN), […] LPS, Adriamycin and other agents. In some embodiments, the cells were co-treated with chemical and other agents (such as mizouribine) to prevent damage from damaging agents (such as PAN). In other embodiments, the rescue agents were added 0-48 h after the addition of injury causing agents. In some embodiments, patient samples such as blood, serum, urine or other samples were added to differentiated podocytes to identify disease causing agents. In some embodiments, primary, differentiated patient podocytes were cultured to identify defects in structure and/or function.
After culturing for the appropriate time and treatment or control, cultured podocytes in multi-well optical plates were rinsed with phosphate buffered saline (PBS) and subsequently fixed using a solution of paraformaldehyde and sucrose in PBS (at a final concentration of 4% paraformaldehyde and 2% sucrose in PBS) for 30 min at room temperature. Following fixation, the cells were permeabilization using a solution of 0.3% Triton X-100 in PBS for 15 min at room temperature. For visualization of filamentous-actin (F-Actin) in cells, cells were stained with a solution of Alexa fluor 568 phalloidin (Invitrogen), as previously described. HCS CellMask Blue (Invitrogen) was used as a fluorescent stain for visualizing nuclei, cytoplasm and the individual cell boundaries. Additional proteins that were fluorescently labeled and analyzed using appropriate primary mAbs include synaptopodin (synpo, primary mAb from Santa Cruz), Paxillin (primary mAb clone Y113 from Millipore) for quantitation of focal adhesions, beta1 integrin, podocin, WT1 nephrin, CD2-AP may also be used. Other proteins may also be used for labeling. Appropriate secondary antibodies (fluorescently labeled) were used for fluorescent visualizations. High throughput confocal microscopy was done using the Opera LX (Perkin Elmer) with filters and exposure times according to manufacturer's instructions and as described before. Images were used in subsequent image analysis for quantitation of a variety of cellular parameters. Assays were performed in replicate wells for assay robustness.
Images for each frame of each well in multiple fluorescent channels were acquired using OPERA imaging system. […]

Experiment [2] has as its system murine podocytes. Put plainly: Primary HCS screen of chemical library, cell roundness Z score, PAN injury. Particulars: PAN 16 μg/ml, 48 hours; for primary hit (protects podocytes from PAN damage): Z-score cutoff ≦−1.28. Type of experiment: cell-based. On the procedure: Screening of chemical libraries, which include the MicroSource Spectrum collection (MicroSource Discovery Systems, Inc., Gaylorsville, C T, 2000 compounds) and Enzo kinase inhibitor array (Enzo Life Sciences, Farmingdale, N.Y., 80 compounds), Sigma, Millipore, Tocris and Cayman (41 compounds), was performed using multiwall plates. Podocytes cultured in multiwall plates were used in these assays. 100 nL of each compound, also in multiwall plates (at a stock concentration of 1 mM to 10 mM in DMSO), was added to each well of a podocyte containing multiwall plate using the Perkin Elmer Janus automated workstation with the help of a 96-pin or 384-pin pin tool (100 nL, PerkinElmer). The compounds were added in the absence or presence of podocyte damaging agent (such as PAN). The plates containing the compounds were subsequently placed in tissue culture incubators and cells were further cultured for 1-72 h at 37° C. A compound that decreased PAN damaged was identified by quantifying the changes in at least one of the following parameters: cell morphology, cell roundedness, F-actin intensity, number of focal adhesions, intensity or size of focal adhesions, length of actin fibers, size of actin fibers, percent damaged or percent healthy cells etc. In certain cases, hits were validated by acquiring a fresh batch of the compound from commercial sources and performing dose-response curves. Images from the primary screen were quantified for cell morphology parameter and were normalized by calculating z-score (z) for each test compound, to compensate for any plate-to-plate variability. (Wiggins, Kidney International, 2007) z was calculated for each of the test compounds using the formula: […]
where x is the raw measured value with each compound, μ is the mean of all measured raw values across a plate and a is the standard deviation of the measurements. A z-score of […], corresponding to 90% population under the curve, was used as a cutoff to identify primary hits in the assay.
To identify small molecules that protect podocytes from PAN injury, a chemical library of 2121 pharmacologically active compounds was screened. Podocytes were treated with compounds from the chemical library in the presence of PAN (16 μg/ml) at 37° C. for 48 hours. The assay plates also contained eight positive (PAN and MZR treatment) and eight negative (PAN treatment) control wells. Wells were imaged and analyzed, and the mean cell roundness per cell was calculated for each well. Mean cell roundness was normalized using plate-based positive and negative controls, and a Z score for the change in cell morphology on treatment with each compound (SD away from the plate mean) was calculated. The results from the screen are presented as a graph in FIG. 7A. Wells with nuclei counts. […] Primary hits (compounds that protected podocytes from PAN damage) were identified from the assay using a Z-score cutoff of ≦−1.28 corresponding to the 10% population on one side of the bell-shaped curve. […] Given that our assay is image based, the images from all initial hits were visually inspected manually, which eliminated 10 compounds as nonhits. […] The identified list of primary hit compounds included three Rho kinase inhibitors (Y27632, GSK 429286, and Thiazovivin) and a p38 kinase inhibitor (SB 203580). […] Next, to validate the hit compounds identified from our screen, selected primary hits were reanalyzed using independently obtained powder forms of the compounds.

≈ marks a conversion by molar mass, not a printed value.

Turning to `O=C1Cc2c([nH]c3ccc(Br)cc23)-c2ccccc2N1` [Kenpoullon], the “prevention of PAN induced injury, dose-response of percent damaged cells (FIG. 4A-4P)” value in the experiment with murine podocytes [1] was “prevented PAN induced injury”.
Regarding Agelasine, in the experiment on murine podocytes [1], the “prevention of PAN induced injury, dose-response of percent damaged cells (FIG. 4A-4P)” value was “prevented PAN induced injury”. In the experiment on murine podocytes [2], the “primary hit (protects podocytes from PAN damage)” value is listed as “primary hits”.
Consider `O=C(NCc1ccccc1)c1csc(Nc2ccncn2)n1` [Thiazovivin], for which the “primary hit (protects podocytes from PAN damage)” value in the experiment on murine podocytes [2] was “primary hit”.
Regarding antimycin A, the “primary hit (protects podocytes from PAN damage)” value in the experiment with murine podocytes [2] was “primary hits”.
`C[C@@H](N)[C@H]1CC[C@H](C(=O)Nc2ccncc2)CC1` [Y27632]: the “prevention of PAN induced injury, dose-response of percent damaged cells (FIG. 4A-4P)” value with murine podocytes [1] is listed as “prevented PAN induced injury”. Also, in the experiment with murine podocytes [2], the “primary hit (protects podocytes from PAN damage)” value is “primary hit”.
Turning to `CC1=C(C(=O)Nc2cc3cn[nH]c3cc2F)C(c2ccc(C(F)(F)F)cc2)CC(=O)N1` (stereo not shown) [GSK429286], in the experiment on murine podocytes [1], the “prevention of PAN induced injury, dose-response of percent damaged cells (FIG. 4A-4P)” value is reported as “prevented PAN induced injury”. Further, the “primary hit (protects podocytes from PAN damage)” value in the experiment on murine podocytes [2] was “primary hit”.
As for Mundeserone, the “prevention of PAN induced injury, dose-response of percent damaged cells (FIG. 4A-4P)” value with murine podocytes [1] is “prevented PAN induced injury”.
`Cc1cccc(-c2[nH]ncc2-c2ccc3ncccc3n2)n1` [Alk5 Inhibitor2]: the “prevention of PAN induced injury, dose-response of percent damaged cells (FIG. 4A-4P)” value in the experiment with murine podocytes [1] was “prevented PAN induced injury”.
Take `C#C[C@]1(OC(C)=O)CC[C@H]2[C@@H]3CCC4=CC(=NO)CC[C@@H]4[C@H]3CC[C@@]21CC` (mixture of isomers) [norgestimate]: in the experiment with murine podocytes [2], the “primary hit (protects podocytes from PAN damage)” value was “identified”.
Turning to `COc1cc2nc(N3CCN(C(=O)C4COc5ccccc5O4)CC3)nc(N)c2cc1OC` (stereo not shown) [Doxazocin], in the experiment with murine podocytes [1], the “prevention of PAN induced injury, dose-response of percent damaged cells (FIG. 4A-4P)” value is recorded as “prevented PAN induced injury”. Also, the “primary hit (protects podocytes from PAN damage)” value in the experiment on murine podocytes [2] was “primary hits”.
For the compound `C[S+]([O-])c1ccc(-c2nc(-c3ccncc3)c(-c3ccc(F)cc3)[nH]2)cc1` (stereo not shown) [SB 203580], the “primary hit (protects podocytes from PAN damage)” value with murine podocytes [2] is recorded as “primary hit”.
In the case of `Nc1[nH]nc2nnc(-c3c(-c4ccccc4)nn4ccccc34)cc12` [FR 180204], the “prevention of PAN induced injury, dose-response of percent damaged cells (FIG. 4A-4P)” value in the experiment on murine podocytes [1] was “prevented PAN induced injury”.
As to `O=c1cc(-c2ccc(O)cc2)oc2cc(O)cc(O)c12` [Apigenin], the “prevention of PAN induced injury, dose-response of percent damaged cells (FIG. 4A-4P)” value in the experiment on murine podocytes [1] is “prevented PAN induced injury”. Also, the “primary hit (protects podocytes from PAN damage)” value in the experiment with murine podocytes [2] is “primary hits”.
In the same order, the values of `Nc1nc2nc[nH]c2c(=S)[nH]1` [Thioguanidine] are “prevented PAN induced injury” and “primary hits”.
In the case of `C=CC[C@]1(O)CC[C@H]2[C@@H]3CCC4=CC(=O)CCC4=C3C=C[C@@]21C` [altrenogest], in the experiment on murine podocytes [2], the “primary hit (protects podocytes from PAN damage)” value is given as “identified”.
Turning to `C[C@@H]1C[C@H]2[C@@H]3CCC4=CC(=O)C=C[C@]4(C)[C@@]3(F)[C@@H](O)C[C@]2(C)[C@@]1(O)C(=O)CO` [DEX, Dexamethasone], the “lowest concentration able to protect cells from PAN damage” value with murine podocytes [1] (PAN 30 μg/ml, F-actin fiber count, 48 h) stood at 0.1 µM.
Regarding `CCOc1ccc(Cc2nccc3cc(OCC)c(OCC)cc23)cc1OCC` [Ethaverine], the “prevention of PAN induced injury, dose-response of percent damaged cells (FIG. 4A-4P)” value in the experiment with murine podocytes [1] is recorded as “prevented PAN induced injury”.
With Derusnin, in the experiment on murine podocytes [1], the “prevention of PAN induced injury, dose-response of percent damaged cells (FIG. 4A-4P)” value is recorded as “prevented PAN induced injury”.
Turning to `COc1nccc(-c2c(-c3ccc(F)cc3)ncn2C2CCC(O)CC2)n1` (stereo not shown) [P38 inhibitor (SB239063)], the “prevention of PAN induced injury, dose-response of percent damaged cells (FIG. 4A-4P)” value in the experiment on murine podocytes [1] is “prevented PAN induced injury”.
For the compound `c1coc(CNc2ncnc3[nH]cnc23)c1` [Kinetin], the “prevention of PAN induced injury, dose-response of percent damaged cells (FIG. 4A-4P)” value in the experiment with murine podocytes [1] is “prevented PAN induced injury”.
Regarding `CN(C)c1ncnc2c1ncn2[C@@H]1O[C@H](CO)[C@@H](N)[C@H]1O` [PAN, puromycin aminonucleoside], the PAN concentration causing half-maximal damage with murine podocytes [1] (Mus musculus, 48 h, read-out: PAN concentration causing half-maximal damage (half-maximal inhibitory concentration)) was 16 µg/mL.
Regarding `NC(=O)c1ncn([C@@H]2O[C@H](CO)[C@@H](O)[C@H]2O)c1O` [MZR, Mizoribine], the EC50 with murine podocytes [1] (Mus musculus, PAN 30 μg/ml, 48 hours, read-out: concentration reducing PAN damage by one half (half-maximal effective concentration)) was 1.4 µg/mL (≈ 5.4 µM). Moreover, the “concentration affording complete protection of podocytes from PAN injury” value in the experiment with murine podocytes [1] (PAN 30 μg/ml, 48 hours) is 5 µg/mL. Further, in the experiment with murine podocytes [1] (PAN 16-30 μg/ml, 48 hours, F-actin fibers and other parameters), the “dose-dependent protection of podocytes from PAN-induced injury” value was “dose-dependent protection”. The “Z score of cell roundness” value in the experiment on murine podocytes [2] (37° C., negative Z score = active) is −2.31±0.2.
Turning to `COc1ccc(-c2cc(=O)c3c(O)cc(O)cc3o2)cc1O` [Diosmetin], the “prevention of PAN induced injury, dose-response of percent damaged cells (FIG. 4A-4P)” value in the experiment with murine podocytes [1] is “prevented PAN induced injury”.
`COc1ccc2cc3[n+](cc2c1OC)CCc1cc2c(cc1-3)OCO2` [Berberine]: the “prevention of PAN induced injury, dose-response of percent damaged cells (FIG. 4A-4P)” value with murine podocytes [1] was “prevented PAN induced injury”. The “primary hit (protects podocytes from PAN damage)” value with murine podocytes [2] is recorded as “primary hits”.

These data come from patent publication US20170269060A1, “Assays and Compounds to Treat Kidney Diseases” (Rush University Medical Center, priority 2014, published 2017).
